The values that follow come from patent US20240092784A1, “CONDENSED HETEROCYCLIC COMPOUND” (NISSAN CHEMICAL CORPORATION, priority 2020, published 2024).

Experiment [1] has as its target T1, human SPR (Homo sapiens (Human), UniProt P35270). The experiment in a line: Evaluation Example 2: Measurement of human SPR inhibitory activity (seven concentrations, sepiapterin absorbance at 420 nm). Format: biochemical. As to conditions: Evaluation Example 2, seven concentrations 0.14 nM to 100 nM, 240 minutes at room temperature, read-out: IC50. Summed up: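 Reactions ran 240 min at room temperature in 100 mM Tris-HCl pH 7.5 with 0.01% BSA. They contained tag-cleaved, E. coli-expressed full-length human SPR (diluted to 150 ng/mL), seven compound concentrations from 0.14 to 100 nM, and sepiapterin/NADPH added as a 120 μM/160 μM solution. Inhibition was calculated from sepiapterin absorbance at 420 nm.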

For experiment [2], the target named is T1, human SPR. The experiment in a line: Evaluation Example 1: Measurement of human SPR inhibitory activity (sepiapterin absorbance at 420 nm). In kind it is biochemical. As to conditions: 240 minutes at room temperature. The procedure:
Human SPR was prepared as described below. The full-length human SPR (1-261) cDNA was purchased from Eurofins Genomics as an artificially synthesized plasmid containing a DNA sequence optimized for the E. coli expression system so that the sequence of the expressed protein after transcription and translation matches the sequence described in UniprotKB (P35270).
Linearized insert and vector were prepared by PCR using primers designed for amplification of human SPR cDNA and primers designed to contain the thrombin recognition sequence of pET28a (Novagen) and a polyhistidine tag. Cloning was performed using In-Fusion (registered trademark) HD Cloning Kit (TaKaRa) to thereby construct a human SPR expression plasmid. The resultant human SPR expression plasmid was transformed into BL21 (DE3) competent cells (INVITROGEN).
The cells were inoculated into LB medium (1% triptone, 0.5% yeast extract, 1% sodium chloride) containing […] of kanamycin, and then precultured at 37° C. overnight. The precultured cells were inoculated into TB medium (1.2% triptone, 2.4% yeast extract, 9.4% dipotassium hydrogen phosphate, 2.2% potassium dihydrogen phosphate, 0.8% glycerin) containing […] of kanamycin, and the cultured at 37° C., to thereby induce SPR expression with 0.5 mM IPTG for four hours. After the induction, the cells were collected by centrifugation at 6,000 G for 30 minutes and washed with PBS, and the washing was discarded. The washed cells were suspended in buffer solution A (20 mM MES, pH 6.5, 100 mM sodium chloride, 1 mM DTT, 5 mM imidazole). Subsequently, the cell suspension was subjected to ultrasonic treatment to thereby homogenize the cells. The cell homogenate was clarified by centrifugation at 30,000 G for 60 minutes and then filtered with a […]. The filtrate was allowed to pass through HisTrapFF 5 mL column (GE Healthcare). The resin was washed with buffer A, and then gradient elution was performed with buffer B (20 mM MES, pH 6.5, 100 mM sodium chloride, 1 mM DTT, 500 mM imidazole). Thrombin was added to a fraction containing the SPR protein, and the mixture was dialyzed in buffer A overnight, to thereby cleave the tag. After removal of the thrombin by with Benzamidine Sepharose 4 FF (GE Healthcare), the resultant product was allowed to pass through the HisTrapFF 5 mL column, to thereby remove the tag, followed by concentration with Amicon Ultra 10,000 NMWL (Merck Millipore). The concentrate was purified by gel filtration using HiLoad 16/60 Superdex 75 pg (GE Healthcare) equilibrated with buffer C (20 mM MES, pH 6.5, 100 mM sodium chloride, 1 mM DTT). The fraction containing SPR protein was concentrated and then cryopreserved at −80° C.
Human SPR inhibitory activity was measured by using a 384-well low adsorption clear plate (Greiner) with buffer D containing 100 mM Tris-HCl (pH 7.5) (Thermo Fisher Scientific) and 0.01% bovine serum albumin (Sigma). A compound was diluted with DMSO to a concentration of 1 mM, and a 1 μL aliquot of the preparation was diluted with 250 μL of buffer D. The thus-diluted compound was dispensed into the 384-well plate at […]. Thereafter, human SPR was diluted with buffer D to 200 ng/mL and then dispensed into the 384-well plate at 20 μL/well. Subsequently, 40 μL of ultrapure water containing 120 μM Sepiapterin (WuXi AppTec) and 120 μM NADPH (Nacalai) was added to each well, and mixed with a vortex mixer, to thereby initiate the reaction. The reaction mixture was incubated at room temperature for 240 minutes, and the reaction was terminated by addition of 10 μL of ultrapure water containing 2% formic acid (Nacalai). In order to determine the amount of sepiapterin after termination of the reaction, the absorbance at 420 nm was measured by applying the 384-well plate to EnSpire multimode plate reader (Perkin Elmer). The percent inhibition (%) of human SPR by the test compound was calculated by the following formula. […]

pIC50: −log10 of the molar value.

T1 sequence (P35270 whole entry): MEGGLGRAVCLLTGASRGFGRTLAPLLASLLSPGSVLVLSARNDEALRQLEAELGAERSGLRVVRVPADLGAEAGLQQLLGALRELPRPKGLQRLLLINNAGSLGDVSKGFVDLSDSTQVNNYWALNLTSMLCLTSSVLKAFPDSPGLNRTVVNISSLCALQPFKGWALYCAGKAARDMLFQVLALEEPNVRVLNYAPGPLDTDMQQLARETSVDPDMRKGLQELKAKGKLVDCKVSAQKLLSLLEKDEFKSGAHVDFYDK

For `CC(C)(C)Cn1c(=O)c(C(=O)NC2CC2)c(O)n2nc(NC(N)=O)cc12` [Synthesis Example 32, N-Cyclopropyl-7-hydroxy-4-neopentyl-5-oxo-2-ureido-4,5-dihydropyrazolo[1,5-a]pyrimidine-6-carboxamide], the pIC50 was 8.51 on human SPR [1] and greater than 6.00 against human SPR [2].
Consider `CC(C)(C)Cn1c(=O)c(C(=O)NC2CC2)c(O)n2nc(Nc3cnccn3)cc12` [Synthesis Example 13, N-Cyclopropyl-7-hydroxy-4-neopentyl-5-oxo-2-(pyrazin-2-ylamino)-4,5-dihydropyrazolo[1,5-a]pyrimidine-6-carboxamide], for which the negative logarithm of the IC50 (pIC50) on human SPR [1] was 8.84; against human SPR [2], greater than 6.00.
The matching figures for `CC(C)Cn1c(=O)c(C(=O)NC2CC2)c(O)n2ncc(/C=C/C(=O)N3CCOCC3)c12` [Synthesis Example 10, (E)-N-Cyclopropyl-7-hydroxy-4-isobutyl-3-(3-morpholino-3-oxoprop-1-en-1-yl)-5-oxo-4,5-dihydropyrazolo[1,5-a]pyrimidine-6-carboxamide]: 9.17 and greater than 6.00.
On the same counts, the results for `CC(C)Cn1c(=O)c(C(=O)NC2CC2)c(O)n2nc(Nc3cnccn3)cc12` [Synthesis Example 23, N-Cyclopropyl-7-hydroxy-4-isobutyl-5-oxo-2-(pyrazin-2-ylamino)-4,5-dihydropyrazolo[1,5-a]pyrimidine-6-carboxamide] are 8.72 and greater than 6.00.
The matching figures for `CC(C)(C)Cn1c(=O)c(C(=O)NC2CC2)c(O)n2nc(Nc3cnc(C(N)=O)cn3)cc12` [Synthesis Example 21, 2-((5-Carbamoylpyrazin-2-yl)amino)-N-cyclopropyl-7-hydroxy-4-neopentyl-5-oxo-4,5-dihydropyrazolo[1,5-a]pyrimidine-6-carboxamide]: 9.02 and greater than 6.00.
For `COc1cnc(Nc2cc3n(CC(C)(C)C)c(=O)c(C(=O)NC4CC4)c(O)n3n2)cn1` [Synthesis Example 16, N-Cyclopropyl-7-hydroxy-2-((5-methoxypyrazin-2-yl)amino)-4-neopentyl-5-oxo-4,5-dihydropyrazolo[1,5-a]pyrimidine-6-carboxamide], the pIC50 is 8.71 on human SPR [1] and greater than 6.00 at human SPR [2].
The matching figures for `CC(C)(C)Cn1c(=O)c(C(=O)NC2CC2)c(O)n2nc(Nc3ccncn3)cc12` [Synthesis Example 12, N-Cyclopropyl-7-hydroxy-4-neopentyl-5-oxo-2-(pyrimidin-4-ylamino)-4,5-dihydropyrazolo[1,5-a]pyrimidine-6-carboxamide]: 8.85 and greater than 6.00.
The matching figures for `CC(C)(C)Cn1c(=O)c(C(=O)NC2CC2)c(O)n2nc(C(N)=O)cc12` [Synthesis Example 33, N6-Cyclopropyl-7-hydroxy-4-neopentyl-5-oxo-4,5-dihydropyrazolo[1,5-a]pyrimidine-2,6-dicarboxamide]: 9.19 and greater than 6.00.
`CC(C)(C)Cn1c(=O)c(C(=O)NC2CC2)c(O)n2nc(-c3cccnc3N)cc12` [Synthesis Example 14, 2-(2-Aminopyridin-3-yl)-N-cyclopropyl-7-hydroxy-4-neopentyl-5-oxo-4,5-dihydropyrazolo[1,5-a]pyrimidine-6-carboxamide]: the figures for the pIC50 at human SPR [1] and on human SPR [2] were 8.92 and greater than 6.00, respectively.
The matching figures for `CC(C)(C)Cn1c(=O)c(C(=O)NC2CC2)c(O)n2nc(N)cc12` [Synthesis Example 18, 2-Amino-N-cyclopropyl-7-hydroxy-4-neopentyl-5-oxo-4,5-dihydropyrazolo[1,5-a]pyrimidine-6-carboxamide]: 9.05 and greater than 6.00.
On the same counts, the results for `COc1cncc(Nc2cc3n(CC(C)(C)C)c(=O)c(C(=O)NC4CC4)c(O)n3n2)n1` [Synthesis Example 17, N-Cyclopropyl-7-hydroxy-2-((6-methoxypyrazin-2-yl)amino)-4-neopentyl-5-oxo-4,5-dihydropyrazolo[1,5-a]pyrimidine-6-carboxamide] are 9.12 and greater than 6.00.
On the same counts, the results for `CC(C)(C)Cn1c(=O)c(C(=O)NC2CC2)c(O)n2nc(Nc3cnc(C(F)(F)F)cn3)cc12` [Synthesis Example 15, N-Cyclopropyl-7-hydroxy-4-neopentyl-5-oxo-2-((5-(trifluoromethyl)pyrazin-2-yl)amino)-4,5-dihydropyrazolo[1,5-a]pyrimidine-6-carboxamide] are 8.79 and greater than 6.00.
